# Results published in patent publication US6809112B2, “Method of treating sexual disturbances” (priority 1999, dated 2004).
# Tests used:
# Format in all cases: in vivo, human
# [1] = system: patient with Hypoactive Sexual Desire Disorder; experiment: Treatment of Hypoactive Sexual Desire Disorder in a patient (Examples A, I); conditions: 1 mg/dose 0.5 hr before sexual activity, examined after one month, patient report
# Source text: A 44 kg, patient is referred by their psychologist for evaluation for and medical treatment of hypoactive sexual desire disorder. The patient recently began to co-habitate with a person. They consulted a clinical psychologist because of distress over frequent arguments with their partner. These arguments concern their frustration that their partner is unwilling to marry them and the partner's accusations that they are sexually unresponsive and “boring in bed.” The patient reports that although they desire to continue the relationship, they have little or no interest in sexual activity with this partner. The partner initiates all sexual activity in the relationship and they comply so that the relationship will continue. They state that their partner desires sexual intercourse about once per day. Occasionally, the couple's frequency of sexual intercourse is as much as twice per day. […] They currently take no prescription drugs other than low dose birth control pills. […] The patient is diagnosed as having Hypoactive Sexual Desire Disorder of acquired onset due to situational factor (Diagnostic and Statistical Manual of Mental Disorders, Fourth Edition, 1994). (5R)-(methylamino)-5,6-dihydro-4H-imidazo[4,5,1-ij]quinolin-2(1H)-one (Z)-2-butenedioate (1:1) is prescribed at 1 mg/dose to be taken 0.5 hr before the patient intends to engage in sexual activity. The patient is instructed that they may use the drug on a daily basis, if they and their partner desire sexual activity at this frequency. They are also instructed that on occasions they may use the drug twice in a single day if this is the intended frequency of intercourse. The patient is examined after one month. They report that they use the drug once, and occasionally twice, per day. […] They also report that they and their partner argue less frequently and that their partner no longer accuses them of being disinterested in sexual relations. The patient is instructed to continue using the drug.
# [2] = system: patient with Female Sexual Arousal Disorder; experiment: Treatment of Female Sexual Arousal Disorder in a patient (Examples B, J); conditions: 3 mg/dose 0.5-1 hr before sexual activity; examined after one month; patient report
# Source text: A 64 kg, patient is complaining of vaginal dryness and mild discomfort during sexual intercourse. The patient recently began a relationship with a person. Their partner complained of their vaginal dryness and poor vaginal expansion during sexual intercourse. Their partner has made several comments about this during the previous two months and the patient is concerned that their partner is dissatisfied with their lack of sexual responsiveness and may end the relationship. The patient reports that they desire to continue the relationship. The patient has had several previous sexual relationships. They report that vaginal dryness and some discomfort with vaginal intercourse has occurred during their past sexual relationships. […] They find their current partner attractive and sexual desirable. […] During these episodes they usually have an orgasm. Lubrication is not a problem when they masturbate. […] They currently take no prescription drugs other than low dose birth control pills. […] The patient is diagnosed as having Female Sexual Arousal Disorder that is situational due to psychological factors (Diagnostic and Statistical Manual of Mental Disorders, Fourth Edition, 1994). (5R)-(methylamino)-5,6-dihydro-4H-imidazo[4,5,1-ij]quinolin-2(1H)-one (Z)-2-butenedioate (1:1) is prescribed at 3 mg/dose to be taken 0.5-1 hr before the patient intends to engage in sexual activity. The patient is instructed that they may use the drug on a daily basis, if this is the intended frequency of sexual activity. The patient is examined after one month. They report that they use the drug prior to intercourse. […] The patient is instructed to continue using the drug.
# [3] = system: patient with Female Orgasmic Disorder; experiment: Treatment of Female Orgasmic Disorder (Examples D, L); conditions: 1 mg/dose about 0.5 hr before sexual activity; examined after two months; patient report
# Source text: A 50 kg, patient who married three months before presenting for treatment. […] They were not sexually active prior to marriage. They report that their spouse had multiple premarital partners and that they report all their past partners had orgasms. The patient is upset by their inability to have orgasms and feels they are an poor spouse. On questioning they report that they are “too fat” although their weight is appropriate for their height. […] They currently take no prescription drugs other than low dose birth control pills. […] The patient is diagnosed as having Female Orgasmic Disorder that is situational due to psychological factors (Diagnostic and Statistical Manual of Mental Disorders, Fourth Edition, 1994). (5R)-(methylamino)-5,6-dihydro-4H-imidazo[4,5,1-ij]quinolin-2(1H)-one (Z)-2-butenedioate (1:1) is prescribed at 1 mg/dose to be taken about 0.5 hr before the patient intends to engage in sexual activity. The patient is instructed that they may use the drug on a daily basis, if this is the intended frequency of sexual activity. The patient is examined after two months. They report that they use the drug prior to intercourse. […] It is recommended that the patient continue to use the drug for an additional six months, then stop taking the drug for a period of two weeks to determine whether they might now be able to have orgasms in the absence of drug therapy.
# [4] = system: patient with erectile dysfunction and hypoactive sexual desire disorder; experiment: Treatment of patient with erectile dysfunction and Hypoactive Sexual Desire Disorder, combination with sildenafil (Examples H, P); conditions: 3 mg/dose in combination with sildenafil (VIAGRA Tablets) 50 mg/dose, orally about 0.5 hr before sexual activity, 2-3 times per week; after one month
# Source text: A 70 kg patient is apparently in good health. They present complaining of a loss of sexual desire and frequent erectile dysfunction since taking an executive position in their company, six weeks previously. They report that they work long hours and feels a high degree of pressure associated with their job. They are frustrated and angry that when they take time off from work they are unable to have an intimate relationship with their spouse. They report that although they are periodically interested in initiating sexual relations, on most occasions they are unable to maintain a high level of interest sufficiently long to initiate or to adequately respond to their spouse's initiating sexual activity. […] They develop a semi-rigid erection at the beginning of sexual activity but detumescence occurs when they attempt penetration. They report that they have few erotic fantasies. They have not masturbated for the past several months. They attribute this to a lack of motivation and interest. […] (5R)-(methylamino)-5,6-dihydro-4H-imidazo[4,5,1-ij]quinolin-2(1H)-one (Z)-2-butenedioate (1:1), 3 mg/dose, and sildenafil (VIAGRA Tablets), 50 mg/dose, are both prescribed. Each is to be taken orally about 0.5 hr before the patient intends to engage in sexual activity. The patient is instructed that they may use the drug combination on a daily basis, if this is the intended frequency of sexual activity. The patient is examined after one month. They report that they take the drug combination 2-3 times per week. […] The patient is advised to continue taking the (5R)-(methylamino)-5,6-dihydro-4H-imidazo[4,5,1-ij]quinolin-2(1H)-one (Z)-2-butenedioate (1:1) for another six months as they adapt to the situational stress associated with their new job. After this time they are advised to stop taking the drug for a period of two weeks to determine whether their sexual motivation and desire have returned to the level they enjoyed prior to the change in jobs.
SMILES,treatment effect (sexual relationship) [1],treatment effect (sexual relationship) [2],treatment effect (sexual relationship) [3],treatment effect (sexual relationship) [4],"frequency of sexual fantasies ([1]; once, occasionally twice, per day)",initiation of sexual activity [1],pain during initiation of vaginal penetration [2],vaginal dryness [2],orgasm during sexual intercourse [3],maintenance of erection [4],sexual fantasies [4],sexual motivation [4]
"CN[C@@H]1Cc2cccc3[nH]c(=S)n(c23)C1 [(5R)-5-(Methylamino)-5,6-dihydro-4H-imidazo[4,5,1-ij]quinoline-2(1H)-thione]",same positive treatment effect,same positive treatment effect,same positive treatment effect,same positive treatment effect,–,–,–,–,–,–,–,–
"CN[C@@H]1Cc2cccc3[nH]c(=O)n(c23)C1.O=C(O)/C=C\C(=O)O [(5R)-(methylamino)-5,6-dihydro-4H-imidazo[4,5,1-ij]quinolin-2(1H)-one (Z)-2-butenedioate (1:1)]",enjoys an improved sexual relationship with their partner,enjoys an improved sexual relationship with their partner,enjoys an improved sexual relationship with their partner,enjoys an improved sexual relationship with their partner,3-4 occasions per week,occasionally initiates sexual activity with their partner,no longer has pain,no longer a problem,has an orgasm during sexual intercourse on most occasions,no difficulty maintaining an erection to completion of sexual intercourse,readily has sexual fantasies that are sustained during sexual intercourse,feels motivated to initiate sexual activity
